Reference: the RepoRT retention time repository (doi:10.1021/acs.analchem.2c02893)

Experiment: RP, Thermo Scientific Acclaim RSLC 120 C18, 100 × 2.1 mm, 2.2 µm, 30 °C, 0.2 mL/min, estimated dead time 1.1 min; A: 90% water + 10% methanol + 0.01% formic acid + 5 mM ammonium formate, pH 3.61; B: methanol + 0.01% formic acid + 5 mM ammonium formate, pH 3.61; gradient (min/%B) 0/1 1/1 2/39 13/99.9 15/99.9 15.1/1 20.1/1
Details: stereoisomer not certain

Row | Structure (SMILES) | LC retention time [min]
1 | CCOP(=S)(OCC)Oc1ccc([N+](=O)[O-])cc1 [Parathion] | 10.7
2 | Fc1ccc(C2CCNCC2COc2ccc3c(c2)OCO3)cc1 (centres undefined) [Paroxetine] | 7.87
3 | CCCCN(CC)C(=O)SCCC [Pebulate] | 11.5
4 | N=C1NC(=O)C(c2ccccc2)O1 (centres undefined) [Pemoline] | 4.34
5 | CC(C)(C)NCC(O)COc1ccccc1C1CCCC1 (centres undefined) [Penbutolol] | 9.01
6 | Nc1nc2c(ncn2CCC(CO)CO)c(=O)[nH]1 [Penciclovir] | 2.98
7 | CCCC(Cn1cncn1)c1ccc(Cl)cc1Cl (centres undefined) [Penconazole] | 10.8
8 | O=C(Nc1ccccc1)N(Cc1ccc(Cl)cc1)C1CCCC1 [Pencycuron] | 11.4
9 | CCC(CC)Nc1c([N+](=O)[O-])cc(C)c(C)c1[N+](=O)[O-] [Pendimethalin] | 12.8
10 | OC1(c2ccc(Cl)c(C(F)(F)F)c2)CCN(CCCC(c2ccc(F)cc2)c2ccc(F)cc2)CC1 [Penfluridol] | 10.1
11 | O=C(NC(=O)c1c(F)cccc1F)Nc1ccc(C(F)(F)F)cc1 [Penfluron] | 10.9
12 | CC1(C)SC2C(NC(=O)COc3ccccc3)C(=O)N2C1C(=O)O (centres undefined) [Penicillin V] | 6.8
13 | CCCC(C)C(=O)Nc1ccc(C)c(Cl)c1 (centres undefined) [Pentanochlor] | 10.6
14 | CC(C)=CCN1CCC2(C)c3cc(O)ccc3CC1C2C (centres undefined) [Pentazocine] | 5.46
15 | CCCC(NC)C(=O)c1ccccc1 (centres undefined) [Pentedrone] | 4.89
16 | CCCCCCn1c(=O)c2c(ncn2C)n(C)c1=O [Pentifylline] | 9.44
17 | CC(=O)CCCCn1c(=O)c2c(ncn2C)n(C)c1=O [Pentoxifylline] | 5.23
18 | CCN(CC)CCOCCOC(=O)C1(c2ccccc2)CCCC1 [Pentoxyverine] | 7.87
19 | CCCC(NC)C(=O)c1ccc2c(c1)OCO2 (centres undefined) [Pentylone] | 4.99
20 | CN1CCN(CCCN2c3ccccc3Sc3ccccc32)CC1 [Perazine] | 8.8
21 | CCCN1CC(CSC)CC2c3cccc4[nH]cc(c34)CC21 (centres undefined) [Pergolide] | 6.19
22 | N#Cc1ccc2c(c1)N(CCCN1CCC(O)CC1)c1ccccc1S2 [Periciazine] | 7.45
23 | CCCC(NC(C)C(=O)N1C(C(=O)O)CC2CCCCC21)C(=O)OCC (centres undefined) [Perindopril] | 13.2

Row | Structure (SMILES) | LC retention time [min]
24 | CC1(C)C(C=C(Cl)Cl)C1C(=O)OCc1cccc(Oc2ccccc2)c1 (centres undefined) [Permethrin] | 13.9
25 | OCCN1CCN(CCCN2c3ccccc3Sc3ccc(Cl)cc32)CC1 [Perphenazine] | 9.55
26 | CCOCCN(C(=O)CCl)C(=C(C)C)c1ccccc1 [Pethoxamide] | 10.1
27 | O=C1Nc2ccc(Br)cc2C(c2ccccc2Cl)=NC1O (centres undefined) [Phenazepam- 3-Hydroxy] | 8.34
28 | O=C1CN=C(c2ccccc2Cl)c2cc(Br)ccc2N1 [Phenazepam] | 8.93
29 | CC1C2Cc3ccc(O)cc3C1(C)CCN2CCc1ccccc1 (centres undefined) [Phenazocine] | 6.08
30 | Cc1cc(=O)n(-c2ccccc2)n1C [Phenazone] | 4.63
31 | Nc1ccc(N=Nc2ccccc2)c(N)n1 [Phenazopyridine] | 8.49
32 | c1ccc(C2(N3CCCCC3)CCCCC2)cc1 [Phencyclidine] | 5.74
33 | CC1C(c2ccccc2)OCCN1C (centres undefined) [Phendimetrazine] | 4.06
34 | NNCCc1ccccc1 [Phenelzine] | 3.71
35 | NCCc1ccccc1 [Phenethylamine (2-)] | 3.57
36 | NC(N)=NC(N)=NCCc1ccccc1 [Phenformin] | 4.38
37 | C[N+](C)([O-])CCC(c1ccccc1)c1ccccn1 (centres undefined) [Pheniramine N-Oxide] | 5.39
38 | CN(C)CCC(c1ccccc1)c1ccccn1 (centres undefined) [Pheniramine] | 4.98
39 | COC(=O)Nc1cccc(OC(=O)Nc2cccc(C)c2)c1 [Phenmedipham] | 8.75
40 | CC1NCCOC1c1ccccc1 (centres undefined) [Phenmetrazine] | 4.14
41 | O=C1OC(c2ccc(O)cc2)(c2ccc(O)cc2)c2ccccc21 [Phenolphthalein] | 7.06
42 | CCC(c1ccccc1)c1c(O)c2ccccc2oc1=O (centres undefined) [Phenprocoumon] | 9.05
43 | CC(C)(N)Cc1ccccc1 [Phentermine] | 4.64
44 | CCOC(=O)C(SP(=S)(OC)OC)c1ccccc1 (centres undefined) [Phenthoate] | 10.7
45 | Cc1ccc(N(CC2=NCCN2)c2cccc(O)c2)cc1 [Phentolamine] | 5.86
46 | O=S(=O)(O)c1ccc2nc(-c3ccccc3)[nH]c2c1 [Phenylbenzimidazole sulfonic acid] | 4.63

Row | Structure (SMILES) | LC retention time [min]
47 | CCCCC1C(=O)N(c2ccccc2)N(c2ccccc2)C1=O [Phenylbutazone] | 8.98
48 | CNCC(O)c1cccc(O)c1 (stereo not drawn) [Phenylephrine (broad peak)] | 1.93
49 | CN(C)CCOc1ccccc1Cc1ccccc1 [Phenyltoloxamine] | 7.29
50 | O=C1NC(=O)C(c2ccccc2)(c2ccccc2)N1 [Phenytoin] | 7.08
51 | CN1CCC23c4c5ccc(OCCN6CCOCC6)c4OC2C(O)C=CC3C1C5 (centres undefined) [Pholcodine] | 2.73
52 | CNC(C)Cc1ccc(O)cc1 (centres undefined) [Pholedrine (Amphetamine-P-Hydroxy-methyl)] | 2.91
53 | CCOP(=O)(OCC)SCSCC [Phorate-oxon] | 8.6
54 | CCOP(=S)(OCC)SCSCC [Phorate] | 11.4
55 | CCOP(=S)(OCC)SCn1c(=O)oc2cc(Cl)ccc21 [Phosalone] | 11.3
56 | COP(=S)(OC)SCN1C(=O)c2ccccc2C1=O [Phosmet] | 8.94
57 | CCN(CC)C(=O)C(Cl)=C(C)OP(=O)(OC)OC [Phosphamidon (Dimecron)] | 6.27
58 | CCOP(=S)(OCC)ON=C(C#N)c1ccccc1 [Phoxim] | 11.2
59 | NC(=O)c1ccccc1C(=O)O [Phthalamic acid] | 2.87
60 | CCCCOC(=O)c1ccccc1C(=O)OCc1ccccc1 [Phthalate-Benzyl butyl] | 12.4
61 | CCCCOC(=O)c1ccccc1C(=O)OCCCC [Phthalate-Di-n-butyl] | 12
62 | CCCCCCCCOC(=O)c1ccccc1C(=O)OCCCCCCCC [Phthalate-Di-n-octyl] | 15.3
63 | O=C(Oc1ccccc1)c1ccccc1C(=O)Oc1ccccc1 [Phthalate-Diphenyl] | 11.2
64 | CCCCC(CC)COC(=O)c1ccccc1C(=O)OCC(CC)CCCC (centres undefined) [Phthalate-bis-(2-ethylhexyl). DEHP] | 15
65 | CNC(=O)Oc1ccc2c(c1)C1(C)CCN(C)C1N2C (centres undefined) [Physostigmine] | 3.89
66 | Nc1c(Cl)c(Cl)nc(C(=O)O)c1Cl [Picloram] | 3.56
67 | O=C(Nc1ccc(F)cc1)c1cccc(Oc2cccc(C(F)(F)F)c2)n1 [Picolinafen] | 12.3
68 | COC=C(C(=O)OC)c1ccccc1COc1cccc(C(F)(F)F)n1 [Picoxystrobin] | 10.5
69 | CCC1C(=O)OCC1Cc1cncn1C (centres undefined) [Pilocarpine] | 2.74

Row | Structure (SMILES) | LC retention time [min]
70 | O=c1[nH]c2ccccc2n1C1CCN(CCCC(c2ccc(F)cc2)c2ccc(F)cc2)CC1 [Pimozide] | 8.73
71 | CCc1ccc(CCOc2ccc(CC3SC(=O)NC3=O)cc2)nc1 (centres undefined) [Pioglitazone] | 9.09
72 | NC(=O)C1(N2CCCCC2)CCN(CCCC(=O)c2ccc(F)cc2)CC1 [Pipamperone] | 6.11
73 | c1cc2c(cc1CN1CCNCC1)OCO2 [Piperazine -1-Piperonyl] | 4.22
74 | Clc1ccc(C(c2ccccc2)N2CCNCC2)cc1 (centres undefined) [Piperazine -1[(4-chlorophenyl) phenyl methyl]] | 8.53
75 | CCCc1nn(C)c2c(=O)[nH]c(-c3cc(C(=O)CN4CCCCC4)ccc3OCC)nc12 [Piperiacetildenafil] | 7.14
76 | CCCCOCCOCCOCc1cc2c(cc1CCC)OCO2 [Piperonyl butoxide] | 12.4
77 | CN(C)S(=O)(=O)c1ccc2c(c1)N(CCCN1CCC(CCO)CC1)c1ccccc1S2 [Pipotiazine] | 7.39
78 | OC(c1ccccc1)(c1ccccc1)C1CCCCN1 (centres undefined) [Pipradrol] | 5.78
79 | CCOC(=O)C=C1SC(N2CCCCC2)C(=O)N1CC (centres undefined) [Piprozolin] | 9.85
80 | CN1CCN(CC(=O)N2c3ccccc3C(=O)Nc3cccnc32)CC1 [Pirenzepine] | 4.11
81 | NS(=O)(=O)c1cc(C(=O)O)cc(N2CCCC2)c1Oc1ccccc1 [Piretanide] | 7.17
82 | CNc1nc(C)c(C)c(OC(=O)N(C)C)n1 [Pirimicarb-desmethyl] | 5.89
83 | Cc1nc(N(C)C)nc(OC(=O)N(C)C)c1C [Pirimicarb] | 7.77
84 | CCOP(=S)(OCC)Oc1cc(C)nc(N(CC)CC)n1 [Pirimiphos-ethyl] | 12.3
85 | CCN(CC)c1nc(C)cc(OP(=S)(OC)OC)n1 [Pirimiphos-methyl] | 11.3
86 | N#CC(CCN1CCC(C(N)=O)(N2CCCCC2)CC1)(c1ccccc1)c1ccccc1 [Piritramide] | 8.19
87 | CC1CCCC(C)N1CCCC(O)(c1ccccc1)c1ccccn1 (centres undefined) [Pirmenol] | 6.01
88 | CN1C(C(=O)Nc2ccccn2)=C(O)c2ccccc2S1(=O)=O [Piroxicam] | 6.84
89 | COC(=O)c1ccccc1C(=O)c1ccc(OCCN2CCCCC2)cc1 [Pitofenone] | 5.44
